Experimental data taken from patent EP1931657B1, “NOVEL HIGH AFFINITY QUINOLINE-BASED KINASE LIGANDS” (Merck Sharp & Dohme Corp., priority 2005, dated 2007).

Each molecule was assayed against CDK-2 (Homo sapiens, UniProt P24941) (assay: CDK-2 inhibition, fluorescence polarization displacement assay).
Protocol: Binding assays were performed in a 384 well Costar NBS coated plate. […] The concentration of BMS-Alexa Fluor647 was 50 nM. Serial dilutions of compounds were added to 12 wells. The final buffer concentration was 10 mM Hepes, pH 7.5, 150 mM NaCl, and 1 mM DTT. Samples were incubated at room temperature for 15 minutes and then read in an Analyst HT instrument using an excitation and emission wavelength of 580 and 680 nm, respectively.

Structure (SMILES)	IC50
COC(=O)[C@H](Cc1ccc(O)cc1)NC(=O)c1cc(C(=O)O)c2cc(-c3cccc(C)c3)ccc2n1 [Compound 48]	< 1 µM
O=C(N[C@@H](Cc1ccc(O)cc1)c1cnco1)c1cc(C(=O)O)c2cc(-c3cccc(C(F)(F)F)c3)ccc2n1 [Compound 99]	1 to 40 µM
COC[C@H](Cc1ccc(O)cc1)NC(=O)c1cc(NS(=O)(=O)C(C)(C)C)c2cc(-c3cccc(COc4ccccn4)c3)ccc2n1 [Compound 27]	< 1 µM
COC[C@H](Cc1ccc(O)cc1)NC(=O)c1cc(NS(=O)(=O)C(C)(C)C)c2cc(-c3cccc(N4CCOCC4)c3)ccc2n1 [Compound 136]	1 to 40 µM
COC(=O)[C@H](Cc1ccc(O)cc1)NC(=O)c1cc(C(=O)O)c2cc(CCC(C)(C)C)ccc2n1 [Compound 52]	< 1 µM
COC(=O)[C@H](Cc1ccc(O)cc1)NC(=O)c1cc(C(=O)O)c2cc(-c3ccc(N(C)C)cc3)ccc2n1 [Compound 107]	1 to 40 µM
COC[C@H](Cc1ccc(O)cc1)NC(=O)c1cc(C(=O)O)c2cc(C#Cc3cccnc3)ccc2n1 [Compound 137]	1 to 40 µM
COC[C@H](Cc1ccc(O)cc1)NC(=O)c1cc(C(=O)O)c2cc(COc3ccc(Cl)c(F)c3)ccc2n1 [Compound 146]	1 to 40 µM
COC(=O)[C@H](Cc1ccc(O)cc1)NC(=O)c1cc(NS(C)(=O)=O)c2cc(-c3cccc(C(F)(F)F)c3)ccc2n1 [Compound 64]	< 1 µM
COC(=O)[C@H](Cc1ccc(O)cc1)NC(=O)c1cc(C(=O)O)c2cc(CCc3ccc(F)cc3)ccc2n1 [Compound 31]	< 1 µM
N#CC[C@H](Cc1ccc(O)cc1)NC(=O)c1cc(C(=O)O)c2cc(CCc3ccccc3)ccc2n1 [Compound 116]	1 to 40 µM
O=C(N[C@@H](Cc1ccc(O)cc1)C(=O)NC1CC1)c1cc(C(=O)O)c2cc(/C=C/c3ccc(Cl)cc3)ccc2n1 [Compound 44]	< 1 µM
COC[C@H](Cc1ccc(O)cc1)NC(=O)c1cc(-c2nnn[nH]2)c2cc(-c3cccc(C(F)(F)F)c3)ccc2n1 [Compound 87]	< 1 µM
COC(=O)[C@H](Cc1ccc(O)cc1)NC(=O)c1cc(C(=O)O)c2cc(-c3ccc(C)cc3)ccc2n1 [Compound 103]	1 to 40 µM
COC(=O)[C@H](Cc1ccc(O)cc1)NC(=O)c1cc(C(=O)O)c2cc(-c3ccc(C)c([N+](=O)[O-])c3)ccc2n1 [Compound 49]	< 1 µM
NC[C@H](Cc1ccc(O)cc1)NC(=O)c1cc(C(=O)O)c2cc(CCc3ccccc3)ccc2n1 [Compound 181]	> 40 µM
COC(=O)[C@H](Cc1ccc(O)cc1)NC(=O)c1cc(C(=O)O)c2cc(Cc3ccccc3)ccc2n1 [Compound 159]	> 40 µM
COC(=O)[C@H](Cc1ccc(O)cc1)NC(=O)c1cc(C(=O)O)c2cc(-c3cccc(OC)c3)ccc2n1 [Compound 91]	1 to 40 µM
COC(=O)[C@H](Cc1ccc(O)cc1)NC(=O)c1cc(C(=O)O)c2cc(-c3ccc(F)c(Cl)c3)ccc2n1 [Compound 50]	< 1 µM
COC(=O)[C@H](Cc1ccc(O)cc1)NC(=O)c1cc(C(=O)O)c2cc(-c3cc(C(F)(F)F)cc(C(F)(F)F)c3)ccc2n1 [Compound 112]	1 to 40 µM
COC(=O)[C@H](Cc1ccc(O)cc1)NC(=O)c1cc(C(=O)O)c2cc(CCc3ccc(C(F)(F)F)cc3)ccc2n1 [Compound 8]	< 1 µM
COC(=O)[C@H](Cc1c[nH]cn1)NC(=O)c1cc(C(=O)O)c2cc(-c3cccs3)ccc2n1 [Compound 156]	> 40 µM
NC[C@H](Cc1ccc(O)cc1)NC(=O)c1cc(C(=O)O)c2cc(CCc3ccc(Cl)cc3)ccc2n1 [Compound 97]	1 to 40 µM

Structure (SMILES)	IC50
COC[C@H](Cc1ccc(O)cc1)NC(=O)c1cc(NS(=O)(=O)C(C)(C)C)c2cc(-c3cccc(COc4cccc[n+]4[O-])c3)ccc2n1 [Compound 98]	1 to 40 µM
COC(=O)[C@H](Cc1ccc(O)cc1)NC(=O)c1cc(C(=O)O)c2cc(-c3ccc(F)c(C)c3)ccc2n1 [Compound 41]	< 1 µM
COC(=O)[C@H](Cc1ccc(O)cc1)NC(=O)c1cc(C(=O)O)c2cc(-c3cc4ccccc4o3)ccc2n1 [Compound 38]	< 1 µM
COC(=O)[C@H](Cc1ccc(O)cc1)NC(=O)c1cc(C(=O)O)c2cc(-c3cc(C)cc(C)c3)ccc2n1 [Compound 67]	< 1 µM
COC[C@H](Cc1ccc(O)cc1)NC(=O)c1cc(C(=O)O)c2cc(C#Cc3ccccn3)ccc2n1 [Compound 125]	1 to 40 µM
COC(=O)[C@H](Cc1ccc(O)cc1)NC(=O)c1cc(C(=O)O)c2cc(-c3cccc(-c4ccccc4)c3)ccc2n1 [Compound 42]	< 1 µM
COC(=O)[C@H](Cc1ccc(O)cc1)NC(=O)c1cc(C(=O)O)c2cc(-c3ccc(OC)c(F)c3)ccc2n1 [Compound 113]	1 to 40 µM
COC[C@H](Cc1ccc(O)cc1)NC(=O)c1cc(C(=O)OCC(O)CO)c2cc(-c3cccc(C(F)(F)F)c3)ccc2n1 (stereo partly shown) [Compound 174]	> 40 µM
COC(=O)[C@H](Cc1ccc(O)cc1)NC(=O)c1cc(C(=O)O)c2cc(-c3cccs3)ccc2n1 [Compound 81]	< 1 µM
CCCC(Cc1ccc(O)cc1)NC(=O)c1cc(C(=O)O)c2cc(-c3cccc(C(F)(F)F)c3)ccc2n1 (stereo not shown) [Compound 54]	< 1 µM
COC(=O)[C@H](Cc1ccc(OC(C)(C)C)cc1)NC(=O)c1cc(C(=O)O)c2cc(-c3cccc(C(F)(F)F)c3)ccc2n1 [Compound 166]	> 40 µM
COC(=O)[C@H](Cc1ccc(O)cc1)NC(=O)c1cc(C(=O)O)c2cc(-c3cccc(C(C)C)c3)ccc2n1 [Compound 30]	< 1 µM
COC[C@H](Cc1ccc(O)cc1)NC(=O)c1cc(NS(=O)(=O)C(C)(C)C)c2cc(-c3cccc(COc4cccnc4)c3)ccc2n1 [Compound 139]	1 to 40 µM
COC(=O)[C@H](Cc1ccc(O)cc1)NC(=O)c1cc(C(=O)O)c2cc(-c3ccc(Cl)c(Cl)c3)ccc2n1 [Compound 69]	< 1 µM
COC[C@H](Cc1ccc(O)cc1)NC(=O)c1cc(C(=O)O)c2cc(-c3cccc(COc4cccnc4)c3)ccc2n1 [Compound 141]	1 to 40 µM
COC(=O)[C@H](Cc1ccc(O)cc1)NC(=O)c1cc(C(=O)O)c2cc(-c3ccc(C(C)C)cc3)ccc2n1 [Compound 72]	< 1 µM
CN(C)C(=O)[C@H](Cc1ccc(O)cc1)NC(=O)c1cc(C(=O)O)c2cc(/C=C/c3ccc(Cl)cc3)ccc2n1 [Compound 34]	< 1 µM
O=C(NC(Cc1ccc(O)cc1)C1CCCCC1)c1cc(C(=O)O)c2cc(-c3cccc(C(F)(F)F)c3)ccc2n1 (stereo not shown) [Compound 63]	< 1 µM
COC(=O)[C@H](Cc1ccc(O)cc1)NC(=O)c1cc(C(=O)O)c2cc(-c3ccc(C)s3)ccc2n1 [Compound 82]	< 1 µM
COC[C@H](Cc1ccc(O)cc1)NC(=O)c1cc(C(=O)O)c2cc(-c3cccc(Cn4ccccc4=O)c3)ccc2n1 [Compound 26]	< 1 µM
COC(=O)[C@H](Cc1ccc(O)cc1)NC(=O)c1cc(C(=O)O)c2cc(-c3ccc4ccccc4c3)ccc2n1 [Compound 133]	1 to 40 µM
COC(=O)[C@H](Cc1ccc(O)cc1)NC(=O)c1cc(C(=O)O)c2cc(-c3ccc(S(C)(=O)=O)cc3)ccc2n1 [Compound 157]	> 40 µM
COC(=O)[C@H](Cc1ccc(O)cc1)NC(=O)c1cc(C(=O)O)c2cc(/C=C/c3ccc(F)cc3)ccc2n1 [Compound 6]	< 1 µM

More lines, now with the values ahead:

IC50	Structure (SMILES)
> 40 µM	COC[C@H](Cc1ccc(O)cc1)NC(=O)c1cc(C(=O)O)c2cc(C#CCCCCN3CCN(C)CC3)ccc2n1 [Compound 219]
> 40 µM	CCCCOC(=O)c1cc(C(=O)N[C@@H](Cc2ccc(O)cc2)C(=O)OC)nc2ccc(-c3cccs3)cc12 [Compound 231]
> 40 µM	COC(=O)[C@H](Cc1ccc(O)cc1)NC(=O)c1cc(C(N)=O)c2cc(-c3cccs3)ccc2n1 [Compound 227]
> 40 µM	CC(C)(C)S(=O)(=O)Nc1cc(C(=O)N[C@H](CN)Cc2ccc(O)cc2)nc2ccc(C#Cc3ccccn3)cc12 [Compound 225]
> 40 µM	CCN(CC)Cc1cccc(-c2ccc3nc(C(=O)N[C@H](COC)Cc4ccc(O)cc4)cc(C(=O)O)c3c2)c1 [Compound 183]
> 40 µM	NCC[C@H](Cc1ccc(O)cc1)NC(=O)c1cc(C(=O)O)c2cc(CCc3ccccc3)ccc2n1 [Compound 182]
> 40 µM	COC[C@H](Cc1ccc(O)cc1)NC(=O)c1cc(C(=O)O)c2cc(-c3cccc(CN(C)CCO)c3)ccc2n1 [Compound 191]
> 40 µM	COC(=O)C(Cc1ccc(O)cc1)NC(=O)c1cc(C(=O)NC(C)C)c2cc(-c3cccs3)ccc2n1 (stereo not shown) [Compound 235]
> 40 µM	COC[C@H](Cc1ccc(O)cc1)NC(=O)c1cc(-n2cccn2)c2cc(-c3cccc(Cn4cccn4)c3)ccc2n1 [Compound 213]
> 40 µM	COC[C@H](Cc1ccc(O)cc1)NC(=O)c1cc(C(=O)O)c2cc(C#CCCCN3CCN(C)CC3)ccc2n1 [Compound 220]
> 40 µM	COC[C@H](Cc1ccc(O)cc1)NC(=O)c1cc(C(=O)O)c2cc(C#CCN3CCS(=O)(=O)CC3)ccc2n1 [Compound 205]
> 40 µM	COC[C@H](Cc1ccc(O)cc1)NC(=O)c1cc(C(=O)O)c2cc(COc3ccccc3OC)ccc2n1 [Compound 201]
> 40 µM	COC(=O)[C@H](Cc1ccc(O)cc1)NC(=O)c1cc(C(=O)OCCO)c2cc(-c3cccs3)ccc2n1 [Compound 230]
> 40 µM	COC[C@H](Cc1ccc(O)cc1)NC(=O)c1cc(C(=O)O)c2cc(CN(C)C)ccc2n1 [Compound 211]
> 40 µM	CCOC(=O)C#Cc1ccc2nc(C(=O)N[C@H](COC)Cc3ccc(O)cc3)cc(C(=O)O)c2c1 [Compound 206]
> 40 µM	COC[C@H](Cc1ccc(O)cc1)NC(=O)c1cc(C(=O)OCCN(C)C)c2cc(/C=C/c3ccc(Cl)cc3)ccc2n1 [Compound 218]
> 40 µM	COC[C@H](Cc1ccc(O)cc1)NC(=O)c1cc(C(=O)O)c2cc(C#CCCCCN)ccc2n1 [Compound 203]
> 40 µM	COC[C@H](Cc1ccc(O)cc1)NC(=O)c1cc(C(=O)O)c2cc(C#Cc3ccncc3)ccc2n1 [Compound 204]
> 40 µM	COC[C@H](Cc1ccc(O)cc1)NC(=O)c1cc(C(=O)O)c2cc(/C=C/c3cccnc3)ccc2n1 [Compound 188]
> 40 µM	COC[C@H](Cc1ccc(O)cc1)NC(=O)c1cc(C(=O)O)c2cc(CSc3ccccn3)ccc2n1 [Compound 210]
> 40 µM	CCOC(=O)c1cc(C(=O)N[C@H](COC)Cc2ccc(O)cc2)nc2ccc(/C=C/c3ccc(Cl)cc3)cc12 [Compound 217]
